From publication PMC11222147, “Host defence peptide plectasin targets bacterial cell wall precursor lipid II by a calcium-sensitive supramolecular mechanism” (Nature Microbiology, 2024)
Where a SMILES comes first, the peptide text is derived from it. Bridges are numbered along the chain shown (N, C = ends).

What was measured:
[1] = Isothermal titration calorimetry with lipid II LUVs; format: binding; conditions: mutant vs plectasin
Procedure: About 200 nm large unilamellar vesicles (LUVs) were prepared from 2 mol% lipid II in DOPC by the extrusion technique. ITC measurements were conducted on a low-volume Affinity ITC (TA instruments). All measurements were conducted at 37 °C. Samples were degassed for 10 min before the ITC experiments. The cell was filled with plectasin (in 50 mM HEPES, 150 mM NaCl at pH = 7.2) and titrated with LUVs in the same buffer under constant stirring at 125 r.p.m. The data were analysed using the Nano Analyze software version 3.11.0 (TA Instruments). After baseline correction, the integrated peaks were fitted using an independent binding model. Each measurement was acquired in duplicate.

S. simulans 22 = assay: MIC assays under standard conditions; format: cell-based, Staphylococcus simulans; conditions: Supplementary Table 1; cation-adjusted MHB, 37 °C, 16–20 h
Procedure: (§1) Plectasin and analogues were serially diluted in cation-adjusted Mueller–Hinton broth (MHB) in round-bottom polypropylene 96-well plates (50 µl per well). Selected bacterial strains were grown from glycerol stocks on blood agar plates. Individual colonies were inoculated in TSB and incubated at 37 °C while shaking until OD600 reached 0.5. Bacterial suspensions were then diluted 100 times in cation-adjusted MHB and distributed (50 μl per well) over the microplate containing the diluted plectasin solutions. Plates were covered by a gas-permeable adhesive membrane and incubated at 37 °C while shaking. MICs were determined by visual inspection after 16–20 h (Staphylococcus) or 20–24 h (Streptococcus). For Streptococcus strains, the broth was additionally supplemented with 5% lysed horse blood, and the microplates were incubated under 5% CO2 atmosphere. In the assays, we used the following strains: S. simulans, S. pneumoniae serotype 8, S. pneumoniae ATCC6305 and Streptococcus pyogenes M3.

S. pneumoniae ATCC6305 = assay: MIC assays under standard conditions; format: cell-based, Streptococcus pneumoniae; conditions: Supplementary Table 1; cation-adjusted MHB + 5% lysed horse blood, 5% CO2, 20–24 h
Procedure: as §1

[2] = Confocal microscopy of GUVs doped with Und-NBD-lipid II; conditions: GUVs 0.4 mol% Und-NBD-LII in DOPC, 1 μM antibiotic
Procedure: GUVs were prepared by electroformation using in-house build Teflon cells with two titanium wires as electrodes. About 1 μl of 0.5 mM DOPC with 0.4 mol% NBD–lipid II in 2:1 CHCl3/MeOH was brushed on both electrodes and thoroughly dried under vacuum. Next, the cell was filled with 350 μl 300 mM sucrose, and GUVs were formed by applying an oscillating voltage (sine wave, 2 V, 10 Hz) for 90 min and released from the electrodes (square wave, 2 V, 2 Hz). Microscopy slides were precoated using a 1 mg ml^−1 BSA solution. Slides were filled with 300 μl 300 mM glucose solution, followed by addition of the antibiotic and finally 30–50 μl GUV solution. The GUVs were imaged using a Zeiss LSM 880 confocal microscope with a ×63/1.2NA glycerol objective lens. Green fluorescence (530–545 nm) was detected after excitation with a 488 nm laser.

Compound	loss in lipid II binding affinity (ITC) [1] [fold]	Minimum inhibitory concentration, S. simulans (S. simulans 22)	Minimum inhibitory concentration, S. pneumoniae ATCC6305 (S. pneumoniae ATCC6305)	lipid II cluster/domain formation on GUVs [2]
CC[C@H](C)[C@@H]1NC(=O)[C@H](CO)NC(=O)[C@H](CCCCN)NC(=O)[C@@H]2CSSC[C@@H](C(=O)N[C@@H](Cc3ccc(O)cc3)C(=O)O)NC(=O)[C@H](CCCCN)NC(=O)[C@@H]3CSSC[C@H](NC(=O)[C@H](CCC(N)=O)NC(=O)[C@H](CCSC)NC(=O)[C@H](CC(=O)O)NC(=O)[C@H](CC(=O)O)NC(=O)[C@H](CCC(=O)O)NC(=O)[C@H](CC(=O)O)NC(=O)[C@H](Cc4c[nH]c5ccccc45)NC(=O)[C@@H]4CCCN4C(=O)CNC(=O)[C@H](CC(N)=O)NC(=O)[C@@H](NC(=O)CNC(=O)[C@H](Cc4ccccc4)NC(=O)CN)CSSC[C@H](NC(=O)[C@H](Cc4ccc(O)cc4)NC(=O)CNC(=O)CNC(=O)[C@H](CCCCN)NC(=O)[C@H](Cc4ccc(O)cc4)NC(=O)CNC(=O)[C@H](CCCCN)NC1=O)C(=O)N[C@@H](C)C(=O)N[C@@H](CCCCN)C(=O)NCC(=O)NCC(=O)N[C@@H](Cc1ccccc1)C(=O)N[C@@H](C(C)C)C(=O)N3)C(=O)N[C@@H](Cc1c[nH]cn1)C(=O)N[C@@H](CC(N)=O)C(=O)N[C@@H](C)C(=O)N2 [H18A] (H-GFGCNGPWDEDDMQCHNACKSIKGYKGGYCAKGGFVCKCY-OH; disulfide 4-30, 15-37, 19-39 (inferred); N-terminus and C-terminus assumed)	> 10	> 50 µg/mL		
CC[C@H](C)[C@@H]1NC(=O)[C@H](CO)NC(=O)[C@H](CCCCN)NC(=O)[C@@H]2CSSC[C@@H](C(=O)N[C@@H](Cc3ccc(O)cc3)C(=O)O)NC(=O)[C@H](CCCCN)NC(=O)[C@@H]3CSSC[C@H](NC(=O)[C@H](CCC(N)=O)NC(=O)[C@H](CCSC)NC(=O)[C@H](CC(=O)O)NC(=O)[C@H](CC(=O)O)NC(=O)[C@H](CCC(=O)O)NC(=O)[C@H](CC(=O)O)NC(=O)[C@H](Cc4c[nH]c5ccccc45)NC(=O)[C@@H]4CCCN4C(=O)CNC(=O)[C@H](CC(N)=O)NC(=O)[C@@H](NC(=O)CNC(=O)[C@H](Cc4ccccc4)NC(=O)CN)CSSC[C@H](NC(=O)[C@H](C)NC(=O)CNC(=O)CNC(=O)[C@H](CCCCN)NC(=O)[C@H](Cc4ccc(O)cc4)NC(=O)CNC(=O)[C@H](CCCCN)NC1=O)C(=O)N[C@@H](C)C(=O)N[C@@H](CCCCN)C(=O)NCC(=O)NCC(=O)N[C@@H](Cc1ccccc1)C(=O)N[C@@H](C(C)C)C(=O)N3)C(=O)N[C@@H](Cc1c[nH]cn1)C(=O)N[C@@H](CC(N)=O)C(=O)N[C@@H](Cc1c[nH]cn1)C(=O)N2 [Y29A] (H-GFGCNGPWDEDDMQCHNHCKSIKGYKGGACAKGGFVCKCY-OH; disulfide 4-30, 15-37, 19-39 (inferred); N-terminus and C-terminus assumed)		12,5 μg/mL	> 50 µg/mL	
CC[C@H](C)[C@@H]1NC(=O)[C@H](CO)NC(=O)[C@H](CCCCN)NC(=O)[C@@H]2CSSC[C@@H](C(=O)N[C@@H](Cc3ccc(O)cc3)C(=O)O)NC(=O)[C@H](CCCCN)NC(=O)[C@@H]3CSSC[C@H](NC(=O)[C@H](CCC(N)=O)NC(=O)[C@H](CCSC)NC(=O)[C@H](CC(=O)O)NC(=O)[C@H](CC(=O)O)NC(=O)[C@H](CCC(=O)O)NC(=O)[C@H](CC(=O)O)NC(=O)[C@H](Cc4c[nH]c5ccccc45)NC(=O)[C@@H]4CCCN4C(=O)CNC(=O)[C@H](CC(N)=O)NC(=O)[C@@H](NC(=O)CNC(=O)[C@H](Cc4ccccc4)NC(=O)CN)CSSC[C@H](NC(=O)[C@H](Cc4ccccc4)NC(=O)CNC(=O)CNC(=O)[C@H](CCCCN)NC(=O)[C@H](Cc4ccc(O)cc4)NC(=O)CNC(=O)[C@H](CCCCN)NC1=O)C(=O)N[C@@H](C)C(=O)N[C@@H](CCCCN)C(=O)NCC(=O)NCC(=O)N[C@@H](Cc1ccccc1)C(=O)N[C@@H](C(C)C)C(=O)N3)C(=O)N[C@@H](Cc1c[nH]cn1)C(=O)N[C@@H](CC(N)=O)C(=O)N[C@@H](Cc1c[nH]cn1)C(=O)N2 [Y29F] (H-GFGCNGPWDEDDMQCHNHCKSIKGYKGGFCAKGGFVCKCY-OH; disulfide 4-30, 15-37, 19-39 (inferred); N-terminus and C-terminus assumed)		1,56 μg/mL	≤ 0.78 µg/mL	
CC[C@H](C)[C@@H]1NC(=O)[C@H](CO)NC(=O)[C@H](CCCCN)NC(=O)[C@@H]2CSSC[C@@H](C(=O)N[C@@H](Cc3ccc(O)cc3)C(=O)O)NC(=O)[C@H](CCCCN)NC(=O)[C@@H]3CSSC[C@H](NC(=O)[C@H](CCC(N)=O)NC(=O)[C@H](CCSC)NC(=O)[C@H](CC(=O)O)NC(=O)[C@H](CC(=O)O)NC(=O)[C@H](CCC(=O)O)NC(=O)[C@H](CC(=O)O)NC(=O)[C@H](Cc4c[nH]c5ccccc45)NC(=O)[C@@H]4CCCN4C(=O)CNC(=O)[C@H](CC(N)=O)NC(=O)[C@@H](NC(=O)CNC(=O)[C@H](Cc4ccccc4)NC(=O)CN)CSSC[C@H](NC(=O)[C@H](CCCNC(=N)N)NC(=O)CNC(=O)CNC(=O)[C@H](CCCCN)NC(=O)[C@H](Cc4ccc(O)cc4)NC(=O)CNC(=O)[C@H](CCCCN)NC1=O)C(=O)N[C@@H](C)C(=O)N[C@@H](CCCCN)C(=O)NCC(=O)NCC(=O)N[C@@H](Cc1ccccc1)C(=O)N[C@@H](C(C)C)C(=O)N3)C(=O)N[C@@H](Cc1c[nH]cn1)C(=O)N[C@@H](CC(N)=O)C(=O)N[C@@H](Cc1c[nH]cn1)C(=O)N2 [Y29R] (H-GFGCNGPWDEDDMQCHNHCKSIKGYKGGRCAKGGFVCKCY-OH; disulfide 4-30, 15-37, 19-39 (inferred); N-terminus and C-terminus assumed)		1,56 μg/mL	1,56 μg/mL	
CC[C@H](C)[C@@H]1NC(=O)[C@H](CO)NC(=O)[C@H](CCCCN)NC(=O)[C@@H]2CSSC[C@@H](C(=O)N[C@@H](Cc3ccccc3)C(=O)O)NC(=O)[C@H](CCCCN)NC(=O)[C@@H]3CSSC[C@H](NC(=O)[C@H](CCC(N)=O)NC(=O)[C@H](CCSC)NC(=O)[C@H](CC(=O)O)NC(=O)[C@H](CC(=O)O)NC(=O)[C@H](CCC(=O)O)NC(=O)[C@H](CC(=O)O)NC(=O)[C@H](Cc4c[nH]c5ccccc45)NC(=O)[C@@H]4CCCN4C(=O)CNC(=O)[C@H](CC(N)=O)NC(=O)[C@@H](NC(=O)CNC(=O)[C@H](Cc4ccccc4)NC(=O)CN)CSSC[C@H](NC(=O)[C@H](Cc4ccc(O)cc4)NC(=O)CNC(=O)CNC(=O)[C@H](CCCCN)NC(=O)[C@H](Cc4ccc(O)cc4)NC(=O)CNC(=O)[C@H](CCCCN)NC1=O)C(=O)N[C@@H](C)C(=O)N[C@@H](CCCCN)C(=O)NCC(=O)NCC(=O)N[C@@H](Cc1ccccc1)C(=O)N[C@@H](C(C)C)C(=O)N3)C(=O)N[C@@H](Cc1c[nH]cn1)C(=O)N[C@@H](CC(N)=O)C(=O)N[C@@H](Cc1c[nH]cn1)C(=O)N2 [Y40F] (H-GFGCNGPWDEDDMQCHNHCKSIKGYKGGYCAKGGFVCKCF-OH; disulfide 4-30, 15-37, 19-39 (inferred); N-terminus and C-terminus assumed)		1,56 μg/mL	0,78 μg/mL	
CC[C@H](C)[C@@H]1NC(=O)[C@H](CO)NC(=O)[C@H](CCCCN)NC(=O)[C@@H]2CSSC[C@@H](C(=O)N[C@@H](CCCNC(=N)N)C(=O)O)NC(=O)[C@H](CCCCN)NC(=O)[C@@H]3CSSC[C@H](NC(=O)[C@H](CCC(N)=O)NC(=O)[C@H](CCSC)NC(=O)[C@H](CC(=O)O)NC(=O)[C@H](CC(=O)O)NC(=O)[C@H](CCC(=O)O)NC(=O)[C@H](CC(=O)O)NC(=O)[C@H](Cc4c[nH]c5ccccc45)NC(=O)[C@@H]4CCCN4C(=O)CNC(=O)[C@H](CC(N)=O)NC(=O)[C@@H](NC(=O)CNC(=O)[C@H](Cc4ccccc4)NC(=O)CN)CSSC[C@H](NC(=O)[C@H](Cc4ccc(O)cc4)NC(=O)CNC(=O)CNC(=O)[C@H](CCCCN)NC(=O)[C@H](Cc4ccc(O)cc4)NC(=O)CNC(=O)[C@H](CCCCN)NC1=O)C(=O)N[C@@H](C)C(=O)N[C@@H](CCCCN)C(=O)NCC(=O)NCC(=O)N[C@@H](Cc1ccccc1)C(=O)N[C@@H](C(C)C)C(=O)N3)C(=O)N[C@@H](Cc1c[nH]cn1)C(=O)N[C@@H](CC(N)=O)C(=O)N[C@@H](Cc1c[nH]cn1)C(=O)N2 [Y40R] (H-GFGCNGPWDEDDMQCHNHCKSIKGYKGGYCAKGGFVCKCR-OH; disulfide 4-30, 15-37, 19-39 (inferred); N-terminus and C-terminus assumed)		> 50 µg/mL	> 50 µg/mL	
copsin				caused the formation of lipid II domains in liposomes
ramoplanin				caused the formation of lipid II domains in liposomes
teicoplanin				caused the formation of lipid II domains in liposomes
